Test results reported in patent publication US8361984B2, “Small interfering RNAs and methods for prevention, inhibition and/or treatment of malignant progression of breast cancer” (Taipei Medical University, priority 2011, dated 2013).
Where two headings read alike, the source gives them in different places.

Assays:
MDA-MB-231 cells [1] = experiment: Soft agar growth assay of MDA-MB-231 cells; type: cell-based, human; settings: parental MDA-MB-231 cells; nicotine 10 μM or NNK 1 μM
Text: (§1) The experiment was repeated four times with duplicate samples.
The assay was repeated four times with duplicate samples.

MCF-10A (DOX) cells [2] = experiment: Long-term transformation of MCF-10A (DOX) cells, soft agar colony formation; type: cell-based, human; settings: soft agar 21 days
Text: Anchorage-independent growth of α9-nAChR overexpressing (MCF-10A-Nic (DOX) and MCF-10A-NNK (DOX)) and siRNA-expressing MDA MB-231 Si α5, Si α9, and Sc cells were examined in soft agar assays. The base layer consisted of 0.9% low-melting point SeaPlaque agarose (Sigma, St. Louis, Mo.) in complete MCF-10A culture medium. Soft agar was composed of 0.4% SeaPlaque agarose in complete DMEM and F12 culture medium was mixed with 1×10^4 cells and plated on top of the base layer in 60-mm-diameter culture dishes. […] Soft agar cultures were maintained at 37° C. for an additional 21 days and observed for the appearance of colonies with a Leica DMI 4000B Microscope Imaging System (Leica Microsystems, Wetzlar, Germany). The assay was repeated four times with duplicate samples.

MCF-10A (DOX) cells [3] = experiment: MTT cell proliferation assay in MCF-10A (DOX) cells; type: cell-based, human; settings: nicotine 10 μM, NNK 1 μM; DOX+ vs DOX− cells
Method: Data points represent the mean; error bars indicate 95% confidence intervals. […] The experiment was repeated four times with duplicate samples. […] After transplantation, mice bearing tumors were treated with DOX (0.5 mg/mL) via drinking water for 14 days. After that, all mice bearing tumors (200 mm^3) were divided into either α9-nAChR mRNA expressing (DOX−) or non-expressing (DOX+) groups in the presence or absence of nicotine (10 mg/mL) in their drinking water (n=5, per group). […] Error bars represent 95% confidence intervals.
(§2) Cell growth, proliferation, and viability were determined using the 3-(4,5-dimethylthiazol-2-yl)-2,5-diphenyltetrazolium (MTT) assay (Chou Y H, Ho Y S, Wu C C, et al. Food Chem Toxicol 2007; 45(8):1356-67.) Stock solutions of 10 mM nicotine and NNK (Chemsyn, Lenexa, Kans.) were prepared in dimethyl sulfoxide (DMSO). This assay was repeated four times with duplicate samples.

MDA-MB-231 cells [4] = experiment: MTT cell proliferation assay in MDA-MB-231 cells (parental, Sc, Si α5, Si α9); type: cell-based, human
Text: A) Detection of nAChR subunits by reverse transcription-polymerase chain reaction (RT-PCR) in normal and cancerous human breast cell lines. MCF-7, MDA-MB-231, AU-565, MDA-MB-453, and BT-483 are transformed human breast cancer cells; MCF-10A and HBL-100 are considered normal human breast cells. The expression profiles of nAChR subunits in human SAEC (small airway epithelial), NHBE (normal human bronchial epithelial), and H157 (lung cancer) cells were also examined as described previously (West K A, Brognard J, Clark A S, et al. J Clin Invest 2003; 111(1):81-90). B) Relative mRNA expression of different nAChR subunits in normal and tumor human breast tissues isolated from 50 breast cancer patients. The cDNA was used for RT-PCR analysis and the experiment was repeated twice. Percent of occurrence is shown. C) Expression of the α5 and α9 nAChR subunits in stable MDA-MB-231 cell lines that express α9-nAChR (Si α9), α5-nAChR (Si α5), or scrambled (Sc) short interfering RNAs (siRNAs). […] Levels of α5 and α9 mRNAs were determined by RT-PCR, and levels of the α5 and α9 proteins by western blotting (WB). In each case, glyceraldehyde 3-phosphate dehydrogenase (GADPH) expression served as a control. D) Cell proliferation in Si α5, Sc, and parental MDA-MB-231 cells treated with dimethylsulfoxide DMSO vs nicotine, and in cells treated with DMSO vs the nicotine metabolite, 4-(methylnitrosamino)-1-(3-pyridyl)-1-butanone (NNK). Parental MDA-MB-231 cells (231) and 231 cells stably transformed the Si α5-, Sc-, or Si α9-siRNAs were treated with either nicotine (10 μM), NNK (1 μM), or vehicle alone in the absence of continued G418 selection afterwards. […] Cell proliferation was measured by the 3-(4,5-dimethylthiazol-2-yl)-2,5-diphenyltetrazolium (MTT) assay, in which a greater number of cells was reflected by an increased OD540 nm at the indicated time points. The experiment was repeated four times with duplicate samples. Data points represent the mean; error bars indicate 95% confidence intervals. The data were analyzed by nonparametric two-sided tests (Kruskal-Wallis and Mann-Whitney tests). […] E) Confocal microscopy of α9-nAChR expression in human breast cancer (MCF-7) cells. Immunofluorescence with a fluorescein isothiocyate-conjugated secondary antibody was used to detect the α9-nAChR, whereas a rhodamine-conjugated fluorescent antibody was used for caveolin-1 labeling. Localization of α9-nAChR (left, green), the membrane protein caveolin-1 (middle, red), and the merged image (right, yellow) are shown. Scale bar=25 μm. F) Dose-dependent binding of [^3H]-nicotine to the endogenous α9-nAChR receptor in human breast cancer MDA-MB-231 cells (left panel) and time-dependent [^3H]-nicotine binding in parental MDA-MB-231 cells (231), or in 231 cells stably transformed with α9-nAChR siRNA (Si α9) or scrambled control (Sc) siRNA (right panel). The experiment was repeated four times with duplicate samples. Data points represent the mean; error bars indicate the 95% confidence intervals. […] G) Analysis of α9-nicotinic acetylcholine receptor (α9-nAChR) expression in human breast carcinoma tissues. Determination of α9-nAChR mRNA levels using reverse transcription-polymerase chain reaction (RT-PCR). […] PCR was performed for 30 cycles.
as §2

[5] = target: T1, endogenous α9-nAChR receptor in human breast cancer MDA-MB-231 cells (Homo sapiens, UniProt Q9UGM1); experiment: [^3H]-nicotine equilibrium binding in MDA-MB-231 cells
T1 construct: endogenous α9-nAChR receptor in human breast cancer MDA-MB-231 cells; endogenous in cells; host or cells: MDA-MB-231 (parental, Sc and Si α9 clones)
T1 sequence (Q9UGM1 26-479 limits assumed): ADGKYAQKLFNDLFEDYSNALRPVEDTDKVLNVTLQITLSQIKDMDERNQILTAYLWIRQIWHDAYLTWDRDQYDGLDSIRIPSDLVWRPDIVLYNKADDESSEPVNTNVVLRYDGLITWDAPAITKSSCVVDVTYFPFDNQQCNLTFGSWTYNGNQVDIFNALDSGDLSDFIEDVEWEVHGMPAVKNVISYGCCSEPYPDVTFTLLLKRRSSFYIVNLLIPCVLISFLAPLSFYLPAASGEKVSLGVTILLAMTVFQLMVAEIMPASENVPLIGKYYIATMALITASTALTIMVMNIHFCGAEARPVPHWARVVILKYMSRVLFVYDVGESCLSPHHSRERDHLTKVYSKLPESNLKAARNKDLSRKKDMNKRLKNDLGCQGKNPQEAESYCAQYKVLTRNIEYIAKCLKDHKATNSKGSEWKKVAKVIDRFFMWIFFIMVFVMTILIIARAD
Method: L-(−)-[N-methyl-^3H]-nicotine (71-75 Ci/mmol) was purchased from Dupont/NEN Research Products (Boston, Mass.), and free base nicotine (99% pure) was purchased from the Eastman Kodak Co. (Rochester, N.Y.). To study the uptake of [^3H]-nicotine in MDA-MB-231 cell monolayers (2×10^6 cells per well), cells were rinsed three times with a buffer containing 140 mM NaCl, 5.4 mM KCl, 1.8 mM CaCl2, 0.8 mM MgSO4, 5 mM glucose, and 25 mM Hepes (pH 7.4). Saturation binding studies were conducted for 2 hours at 37° C. in six-well plates, and used at least eight different concentrations of [^3H]-nicotine ranging from 1 to 15 nM. Time-dependent association kinetic studies in MDA-MB-231, Si α9, Sc cells were conducted using a single concentration of [^3H]-nicotine (7 nM) for treatments of 5, 10, 15, 30, 60 and 90 minutes. For determination of nonspecific binding, 10 μM unlabeled nicotine was pre-added to medium, after which cells were washed three times with ice-cold buffer and then exposed to [^3H]-nicotine. [^3H]-nicotine uptake was stopped by aspiration of the uptake medium and washing the wells three times with ice-cold buffer. The cells were lysed in 1 mL of 0.5% Triton X-100, and aliquots of the cell lysates were transferred to scintillation vials to determine the incorporated radioactivity by scintillation counting. The assay was repeated four times with duplicate samples.

[6] = tested on: MCF-10A-Nic (DOX) xenografts; settings: after 7 weeks; for tumor volume: with nicotine 10 mg/mL drinking water
Method: BALB/c-nu/nu mice (female, 4 weeks old, n=5 per group) purchased from National Science Council Animal Center, Taipei, were injected subcutaneously with MCF-10A-Nic (DOX) and vector control (5×10^6) cells. After transplantation, mice bearing tumors were treated with DOX (0.5 mg/mL) via drinking water for 14 days. After that, all mice bearing tumors (200 mm^3) were divided into either α9-nAChR mRNA expressing (DOX−) or non-induced (DOX+) groups, the latter of which could express the α9-nAChR mRNA at basal level. The mice were simultaneously treated with or without nicotine (10 mg/mL) in their drinking water for an additional 6 weeks. The xenografts were weighed and either snap-frozen in dry ice and stored at −80° C. for RNA and protein analysis or formalin-fixed and paraffin-embedded for immunohistochemical observation.
Examination was conducted as to whether induction of α9-nAChR in the presence or absence of nicotine stimulation in vivo would effectively promote tumor growth (FIG. 6). BALB/c-nu/nu mice (female, 4 weeks old) were injected subcutaneously with transformed MCF-10A-Nic (DOX) cells (5×10^6). After that, all mice bearing tumors (200 mm^3) were divided into either α9-nAChR mRNA expressing (DOX−) or non-expressing (DOX+) groups in the presence or absence of nicotine (10 mg/mL) in their drinking water (n=5, per group).

[7] = tested on: MDA-MB-231 tumor xenografts; experiment: MDA-MB-231 α9-nAChR siRNA-expressing xenografts in NOD-SCID mice; type: in vivo, mouse
Text: as §1

[8] = Sc cells, day 11, nicotine 10 μM, NNK 1 μM
[9] = Si α5 cells, day 11, nicotine 10 μM, NNK 1 μM
[10] = nicotine-treated (10 mg/mL drinking water) mice with parental MDA-MB-231 tumors

Row | Structure (SMILES) | no. of colonies in parental cells (MDA-MB-231 cells [1]) [colonies] | colonies formed, DOX− compared with DOX+ cells (MCF-10A (DOX) cells [2]; NNK 1 μM for 60 days) | induction of cell proliferation (MCF-10A (DOX) cells [3]) | difference in mean OD540 nm vs control (DMSO) (MDA-MB-231 cells [4]; [8]) | mean OD540 nm (MDA-MB-231 cells [4]; [8]) | difference in mean OD540 nm vs control (DMSO) (MDA-MB-231 cells [4]; [9]) | mean OD540 nm (MDA-MB-231 cells [4]; [9]) | time at which maximum binding activity is attained ([5]; MDA-MB-231 cells, [^3H]-nicotine 7 nM) [min] | Kd ([5]; MDA-MB-231 cells, saturation binding 2 hours at 37° C., read-out: dissociation constant (Kd) of [^3H]-nicotine binding) [nM] | [^3H]-nicotine bound by parental cells ([5]; parental MDA-MB-231 cells) [DPM] | difference in tumor volume, with vs without nicotine ([6]; +DOX) [mm^3] | tumor volume ([6]; +DOX) [mm^3] | difference in tumor volume, with vs without nicotine ([6]; −DOX) [mm^3] | tumor volume ([6]; −DOX) [mm^3] | tumor weight in nicotine-fed mice ([7]; mice injected with MDA-MB-231 (231) or Sc cells (FIG. 3D)) | tumor volume at 6 weeks treatment [7, 10] [mm^3] | tumor weight at 6 weeks [7, 10] [g] | colonies formed in soft agar (MCF-10A (DOX) cells [2]; MCF-10A (DOX−) cells, nicotine 10 μM for 60 days) | difference in mean OD540 nm vs control (DMSO) (MDA-MB-231 cells [4]) | mean OD540 nm (MDA-MB-231 cells [4])
1 | CN(CCCC(=O)c1cccnc1)N=O [NNK, 4-(methylnitrosamino)-1-(3-pyridyl)-1-butanone] | 406 | More colonies | induced cell proliferation was observed only in the MCF-10A (DOX+) cell line | 1.00 | 1.77 | 0.99 | 1.78 | – | – | – | – | – | – | – | – | – | – | – | – | –
2 | CN1CCCC1c1cccnc1 [[^3H]-nicotine, L-(−)-[N-methyl-^3H]-nicotine] | – | – | – | – | – | – | – | 60 | 3 | 489.7 | – | – | – | – | – | – | – | – | – | –
3 | CN1CCCC1c1cccnc1 (stereo not shown) [nicotine] | 341 | – | induced cell proliferation was observed only in the MCF-10A (DOX+) cell line | – | – | – | – | – | – | – | 235.4 | 501.6 | 277.4 | 898.6 | heavier | 2993.2 | 4.38 | six | 0.58 | 1.35
